Measured values reported in US20240217966A1, “PHARMACEUTICAL COMPOSITION CONTAINING GLP-1 RECEPTOR AGONIST HAVING FUSED RING” (Shionogi & Co., Ltd., priority 2021, published 2024).
pEC50: −log10 of the molar value.

Target: T1, Human GLP-1 receptor (Homo sapiens, UniProt P43220)
T1 construct: expressed in transfected cells
Assay: Measurement of GLP-1 receptor agonist activity (cAMP assay);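 on pEC50: EC50 of cAMP increase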
Assay type: cell-based
Details: for Emax: CHO-K1, hGLP-1R/CHO-K1 cells, read-out: Emax(%); for pEC50: cAMP increase, 37° C. 1 hour
How it was run: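 hGLP-1R/CHO-K1 cells in HBSS with 0.1% BSA, 20 mM HEPES, 0.1 mM IBMX and 0.2 mM RO20-1724 exposed to compound plus forskolin (400 μM stock) for 1 h at 37 °C. Intracellular cAMP read by HTRF (cAMP-d2/anti-cAMP cryptate, 1 h at room temperature).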

[1] = cAMP, 100% = human GLP-1 (7-36) at 2 nM, 0% = DMSO only

T1 sequence (P43220 24-463): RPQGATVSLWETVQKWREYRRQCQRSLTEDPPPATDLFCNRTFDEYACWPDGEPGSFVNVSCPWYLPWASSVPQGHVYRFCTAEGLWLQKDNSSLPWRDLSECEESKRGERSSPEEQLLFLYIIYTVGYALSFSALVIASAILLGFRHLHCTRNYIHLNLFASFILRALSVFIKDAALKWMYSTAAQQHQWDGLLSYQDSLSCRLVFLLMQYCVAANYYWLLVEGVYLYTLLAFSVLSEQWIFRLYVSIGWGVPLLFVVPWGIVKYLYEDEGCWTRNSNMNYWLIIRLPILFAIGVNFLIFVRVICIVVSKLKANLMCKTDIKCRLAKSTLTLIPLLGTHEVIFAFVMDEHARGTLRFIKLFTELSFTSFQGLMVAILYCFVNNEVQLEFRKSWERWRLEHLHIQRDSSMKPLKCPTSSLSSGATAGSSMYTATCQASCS

Compound | Emax [1] [%] | pEC50 (hGLP-1R/CHO-K1 cells) | Emax(%) (hGLP-1R/CHO-K1 cells, cAMP, 100% = human GLP-1 (7-36) at 2 nM, 0% = DMSO only)
C[C@H]1c2cc(OCc3c(F)cc(Cl)cc3F)c(C(F)(F)F)cc2CCN1Cc1nc2ccc(C(=O)O)cc2n1C[C@@H]1CCO1 [Compound I-114] | 132 | 9.22 | –
C[C@H]1c2cc(OCc3c(F)cc(Cl)cc3F)c(C(F)(F)F)cc2CCN1Cc1nc2ccc(C(=O)O)nc2n1C[C@@H]1CCO1 [Compound I-115] | 124 | 9.27 | –
C[C@H]1c2cc(OCc3ccc(Cl)cc3Cl)c(C(F)(F)F)cc2CCN1Cc1nc2ccc(C(=O)O)nc2n1C[C@@H]1CCO1 [Compound I-118] | 113 | 9.18 | –
COc1cc(C(=O)O)cc2c1nc(CN1CCc3cc(C(F)(F)F)c(OCc4ccc(Cl)cc4F)cc3C1)n2C[C@@H]1CCO1 [Compound I-119] | 119 | 9.24 | –
O=C(O)c1cc(OC(F)F)c2nc(CN3CCc4cc(C(F)(F)F)c(OCc5ccc(Cl)cc5F)cc4C3)n(C[C@@H]3CCO3)c2c1 [Compound I-120] | 103 | 8.61 | –
C[C@H]1c2cc(OCc3ccc(F)cc3)c(C(F)(F)F)cc2CCN1Cc1nc2c(F)cc(C(=O)O)cc2n1C[C@@H]1CCO1 [Compound I-121] | 119 | 8.92 | –
C[C@H]1c2cc(OCc3ccc(F)cc3)c(C(F)(F)F)cc2CCN1Cc1nc2ccc(C(=O)O)c(F)c2n1C[C@@H]1CCO1 [Compound I-122] | 97 | 8.91 | –
C[C@H]1c2cc(OCc3c(F)cc(F)cc3F)c(C(F)(F)F)cc2CCN1Cc1nc2ccc(C(=O)O)cc2n1C[C@@H]1CCO1 [Compound I-124] | 102 | 8.77 | –
C[C@H]1c2cc(OCc3c(F)cc(F)cc3F)c(C(F)(F)F)cc2CCN1Cc1nc2ccc(C(=O)O)c(F)c2n1C[C@@H]1CCO1 [Compound I-126] | 99.7 | – | 98.7
O=C(O)c1ccc2nc(Cc3cc(F)c4nc(C(F)(F)F)c(OCc5ccc(Cl)cc5F)nc4c3)n(C[C@@H]3CCO3)c2c1 [Compound I-127] | 111 | 8.94 | –
O=C(O)c1ccc2nc(Cc3cc4nc(OCc5ccc(Cl)cc5F)c(C(F)(F)F)nc4cc3F)n(C[C@@H]3CCO3)c2c1 [Compound I-128] | 81.3 | 7.39 | –
C[C@H]1c2cc(OCc3c(F)cc(Cl)cc3F)c(C(F)(F)F)cc2CCN1Cc1nc2c(F)cc(C(=O)O)cc2n1C[C@@H]1CCO1 [Compound I-129] | 122 | 9.48 | –
C[C@H]1c2cc(OCc3c(F)cc(Cl)cc3F)c(C(F)(F)F)cc2CCN1Cc1nc2ccc(C(=O)O)c(F)c2n1C[C@@H]1CCO1 [Compound I-130] | 139 | 9.51 | –
Cc1c(Cc2nc3ccc(C(=O)O)cc3n2C[C@@H]2CCO2)ccc2nc(C(F)(F)F)c(OCc3ccc(Cl)cc3F)nc12 [Compound I-132] | 105 | 9.06 | –
O=C(O)c1cc(F)c2nc(CN3CCc4cc(C(F)(F)F)c(OCc5ccc(Cl)cc5F)cc4C3)n(C[C@@H]3CCO3)c2c1F [Compound I-134] | 119 | 8.93 | –
O=C(O)c1ccc2nc(CN3CCc4cc(C(F)(F)F)c(OCc5ccc(C(F)(F)F)cn5)cc4C3)n(C[C@@H]3CCO3)c2c1 [Compound I-135] | 91 | 7.56 | –
Cc1ccc(COc2cc3c(cc2C(F)(F)F)CCN(Cc2nc4ccc(C(=O)O)cc4n2C[C@@H]2CCO2)C3)nc1 [Compound I-136] | 107 | 8.24 | –
Cc1csc(COc2cc3c(cc2C(F)(F)F)CCN(Cc2nc4ccc(C(=O)O)cc4n2C[C@@H]2CCO2)C3)n1 [Compound I-137] | 114 | 8.25 | –
Cc1nc(COc2cc3c(cc2C(F)(F)F)CCN(Cc2nc4ccc(C(=O)O)cc4n2C[C@@H]2CCO2)C3)cs1 [Compound I-138] | 94.3 | 7.16 | –
COc1cc(Cl)ccc1COc1cc2c(cc1C(F)(F)F)CCN(Cc1nc3ccc(C(=O)O)cc3n1C[C@@H]1CCO1)C2 [Compound I-139] | 117 | 8.91 | –
Cc1cc(Cl)ccc1COc1cc2c(cc1C(F)(F)F)CCN(Cc1nc3ccc(C(=O)O)cc3n1C[C@@H]1CCO1)C2 [Compound I-140] | 96 | 7.74 | –
O=C(O)c1ccc2nc(CN3CCc4cc(C(F)(F)F)c(OCc5ccc(OC(F)F)c(F)c5)cc4C3)n(C[C@@H]3CCO3)c2c1 [Compound I-143] | 101 | 7.60 | –
O=C(O)c1cc(C(F)F)c2nc(CN3CCc4cc(C(F)(F)F)c(OCc5ccc(Cl)cc5F)cc4C3)n(C[C@@H]3CCO3)c2c1 [Compound I-146] | 102 | 7.39 | –
Cc1cn(C)nc1COc1cc2c(cc1C(F)(F)F)CCN(Cc1nc3ccc(C(=O)O)cc3n1C[C@@H]1CCO1)C2 [Compound I-147] | 88 | 7.00 | –
CCn1ccc(COc2cc3c(cc2C(F)(F)F)CCN(Cc2nc4ccc(C(=O)O)cc4n2C[C@@H]2CCO2)C3)n1 [Compound I-148] | 95 | 7.49 | –
